Drawing on patent publication US4808580A, “Naphtho[1,2-b][1,4]thiazepin-4(5H)-ones and use thereof in treatment of ischemia and blood pressure lowering” (Hoffmann-La Roche Inc., priority 1987, dated 1989), this text covers IC50 for four compounds.

Usually IC50 stands for the concentration at which inhibition is half-maximal.

Structures are written as SMILES. Structures can show the parent of a compound that is named as a salt.

This test has as its system Guinea Pig Ileum. The test is described as follows: Guinea pig ileum assay - tonic contraction (K+-induced contraction of longitudinal muscle; calcium channel blocking activity). Format: cell-based. Conditions: Cavia porcellus. How it is done: GUINEA PIG ILEUM ASSAY--TONIC CONTRACTION
Male guinea-pigs weighing from 300-400 grams were stunned and bled. The abdomen was opened and 10-15 cm of terminal ileum was carefully removed and cleaned and placed in Tyrode's Solution of the following composition: NaCl (8 g/l), KCl (0.2 g/l), MgCl2 (0.2 g/l.), CaCl2 (0.2 g/l), NaH2 PO4 (0.05 g/l), NaHCO3 (1.0 g/l) and Glucose (1 g/l). The solution was maintained at 37° C. and gassed with 95% O2 and 5% CO2. Portions of the ileum were placed over a glass rod, a shallow incision was made the length of the mesenteric attachment just severing the outer-longitudinal muscle layer. The longitudinal muscle was separated from the underlying circular muscle by gentle dissection (Rang, H. P. Annals of N.Y. Academy of Science Vol. 144, page 756, (1964)). The tissue was fixed at one end to a tissue holder, the other end was connected by a thread to a force transducer and suspended in a muscle bath containing Tyrode's Solution maintained at 37° C. and gassed with 95% O2 and 5% CO2. An initial tension of 500 mg was applied and the tissue allowed to equilibrate for 60 minutes prior to the start of the study. During this period the tissue was washed every 16 minutes. Each preparation, at 16 minute intervals, was challenged with KCl sufficient to yield a bath K^+ concentration of 80 mMK for 2 minutes, then washed with fresh solution. The 16 minute interval between K^+ challenges was maintained throughout the study. Upon stabilization of the responses to the K^+ challenge the test compound (potential calcium entry antagonist) was introduced into the bath 2 minutes prior to and during the 2 minute exposure to K^+ after which the bath was cleared and washed with fresh solution. Logarithmically increasing doses (up to 10^-4 M) of the potential antagonist were administered as the study progressed.
The measure of compound's ability to inhibit the tonic contraction of muscle is a measure of its activity as a calcium channel blocking agent.
Take `COc1ccc([C@@H]2Sc3ccc4ccccc4c3N(CCN(C)C)C(=O)[C@@H]2O)cc1` [C, cis-(+)-2,3-dihydro-3-hydroxy-5-[2-(dimethylamino)ethyl]-2-(4-methoxyphenyl)naphtho[2,1-b][1,4]thiazepin-4(5H)-one hydrochloride semihydrate]: the IC50 was 0.23 µM.

For the compound `COc1ccc([C@@H]2Sc3ccc4ccccc4c3N(CCN(C)C)C(=O)[C@@H]2OC(C)=O)cc1` (relative stereo) [B, cis-rac-3-(acetyloxy)-2,3-dihydro-5-[2-(dimethylamino)ethyl]-2-(4-methoxyphenyl)naphtho[2,1-b][1,4]thiazepin-4(5H)-one (E)-2-butendioate], the IC50 came to 0.45 µM.

Turning to `COc1ccc([C@@H]2Sc3ccc4ccccc4c3N(CCN(C)C)C(=O)[C@@H]2OC(C)=O)cc1` [D, cis-(+)-3-(acetyloxy)-2,3-dihydro-5-[2-(dimethylamino)ethyl]-2-(4-methoxyphenyl)naphtho[2,1-b][1,4]thiazepin-4(5H)-one (E)-2-butendioate], the IC50 stood at 0.39 µM.

Regarding `COc1ccc([C@@H]2Sc3ccc4ccccc4c3N(CCN(C)C)C(=O)[C@@H]2O)cc1` (relative stereo) [A, cis-rac-2,3-dihydro-3-hydroxy-5-[2-(dimethylamino)ethyl]-2-(4-methoxyphenyl)naphtho[2,1-b][1,4]thiazepin-4(5H)-one hydrochloride], the IC50 was 0.4 µM.
